pEC50: −log10 of the molar value.
Target: T1, Human GPR120 short form (Homo sapiens, UniProt Q5NUL3)
T1 construct: expressed in transfected cells
T1 sequence (Q5NUL3 1-361): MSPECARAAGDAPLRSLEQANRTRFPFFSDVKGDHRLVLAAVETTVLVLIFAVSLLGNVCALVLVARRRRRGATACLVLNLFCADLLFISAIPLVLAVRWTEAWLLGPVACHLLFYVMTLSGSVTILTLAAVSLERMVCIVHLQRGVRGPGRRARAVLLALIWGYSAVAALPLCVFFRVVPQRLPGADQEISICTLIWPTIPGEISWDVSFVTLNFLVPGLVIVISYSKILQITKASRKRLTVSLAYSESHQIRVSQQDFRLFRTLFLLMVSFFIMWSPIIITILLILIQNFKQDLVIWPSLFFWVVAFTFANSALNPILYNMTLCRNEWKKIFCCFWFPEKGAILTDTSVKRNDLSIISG
Assay: Human GPR120 in Calcium Flux Assay, Procedure Calcium B (4200 cells/well)
Assay type: cell-based
Excerpt: This in vitro assay serves to assess test compound agonist activity against the short splice variant (SVS with Accession number NM_001195755.1 confirmed by sequencing data) of the GPR120 receptor. The Human Short splice variant #2 (NM_001195755.1) is missing an in-frame coding exon compared to variant 1 (the Human Long splice variant NM_181745.3), resulting in a shorter isoform (GPR120-S) lacking a 16 aa protein segment compared to isoform GPR120-L. The assay platform utilizes HEK-293 cells stably transfected to express the Human GPR120 short form. These cells are first loaded with the Ca^+2 sensitive dye, Fluo-4 NW. Upon stimulation, intracellular released Ca^+2 can bind to the dye and alter its fluorescence intensity. This increase in fluorescence signal, and thus the flux in intracellular [Ca^+2], is detected and quantitated by fluorescence imaging using a FLIPR reader. The effect of the agonist is measured as a function of concentration and used to calculate an EC50 based upon a response curve.
In this procedure 4200 cells/well were employed.
A Human GPR120 clone (Genbank accession number NM_001195755.1) was placed into the pcDNA3.1 mammalian expression vector carrying the neomycin resistance gene. A stable mammalian cell was generated by placing the above clone into a HEK293 background. Clonal cells responding to long chain fatty acids had expression levels of GPR120 confirmed by RT-qPCR. Human HEK-GPR120 cells were cultured in Dulbecco's Modified Eagle's Medium (DMEM)/F12 medium supplemented with 10% fetal bovine serum (FBS), 1% L-Glutamine and 1% penicillin/streptomycin and 0.5 mg/ml G-418. Cells were split 2 times a week to keep the cells in the log-phase growth.
In preparation for the assay, HEK cells stably transfected with Human GPR120 (2.5K cells per well in 25 uL growth medium) were seeded into 384-well plates and then incubated overnight (37° C., 5% CO2). The next day, the media was changed to 20 μl assay buffer and the cell starved for 1 h at 37° C. The dye loading solution (2× dye) was prepared using 10 ml assay buffer, 100 μl of 250 mM probenecid, 1 bottle of Component A, and 20 μl of dye in DMSO. Twenty μl of the 2× dye loading buffer was then added to each well. The plates were incubated at 37° C. for 30 min, then at room temperature for an additional 15 minutes, before performing the assay on FLIPR.
Test compounds were prepared in assay buffer (2 μl of test compound+198 μl assay buffer, final DMSO in assay plate is 0.2%) at the desired concentration, more particularly at 100 μM, 50 μM, 25 μM, 12.5 μM, 6.25 μM, 3.125 μM, 1.562 μM, 0.781 μM, 0.391 μM, 0.195 μM, 0.098 μM, 0.049 μM, 0.024 μM and 0.012 μM.
The assay was performed on a FLIPR plate reader using the following parameters. Baseline was read for 10 seconds at 1 sec intervals. The program was set to transfer 10 μL of ligand from compound plate to cell plate after baseline reading. Aspiration was executed at: 10 μl/sec speed, 4.6 μl height; Dispensing was executed at: 30 μl/sec speed, 45 μl height. After compound addition, each well was read for 300 sec, with measurements collected at 1 sec intervals.
The kinetic data from the FLIPR was based upon a 5 minute window for data collection. The fluorescence of each sample well was used for individual calculations of a normalized RFU value, which was defined as maximum response minus the minimum response. The normalized fluorescence reading (RFU) was calculated as follows: RFU=Fmax−Fmin
The data were fitted to a sigmoidal dose-response curve with a variable Hill slope (<2) using nonlinear regression with GraphPad Prism 5.0 to calculate the EC50 values. The Fitting Equation was: Y=Bottom+(Top−Bottom)/(1+10^((LogEC50−X)*HillSlope)), where X is the log of the concentration and Y is the response.

pEC50: 7.92
SMILES: Cc1cc2cc(OC(F)(F)F)cc(COc3ccc(CCC(=O)O)c(C)c3C)c2o1 [Compound 36, 3-(2,3-Dimethyl-4-{[2-methyl-5-(trifluoromethoxy)-1-benzofuran-7-yl]methoxy}phenyl)propanoic acid]

From patent publication US9562053B2, “Benzo-fused heterocyclic derivatives useful as agonists of GPR120” (Janssen Pharmaceutica NV, priority 2013, dated 2017)
